For nine molecules, IC50 results are on record in patent US11091479B2, “Triazolopyridin-3-ones or their salts and pharmaceutical compositions comprising the same” (YUHAN CORPORATION, priority 2018, dated 2021).

The structures appear in SMILES notation. Structures can show the parent of a compound that is named as a salt.

Common to all, as to type: biochemical
In one assay the target is T1, recombinant human VAP-1 (Homo sapiens, UniProt Q16853).
T1 construct: purchased R&D systems
T1 sequence (Q16853 1-763): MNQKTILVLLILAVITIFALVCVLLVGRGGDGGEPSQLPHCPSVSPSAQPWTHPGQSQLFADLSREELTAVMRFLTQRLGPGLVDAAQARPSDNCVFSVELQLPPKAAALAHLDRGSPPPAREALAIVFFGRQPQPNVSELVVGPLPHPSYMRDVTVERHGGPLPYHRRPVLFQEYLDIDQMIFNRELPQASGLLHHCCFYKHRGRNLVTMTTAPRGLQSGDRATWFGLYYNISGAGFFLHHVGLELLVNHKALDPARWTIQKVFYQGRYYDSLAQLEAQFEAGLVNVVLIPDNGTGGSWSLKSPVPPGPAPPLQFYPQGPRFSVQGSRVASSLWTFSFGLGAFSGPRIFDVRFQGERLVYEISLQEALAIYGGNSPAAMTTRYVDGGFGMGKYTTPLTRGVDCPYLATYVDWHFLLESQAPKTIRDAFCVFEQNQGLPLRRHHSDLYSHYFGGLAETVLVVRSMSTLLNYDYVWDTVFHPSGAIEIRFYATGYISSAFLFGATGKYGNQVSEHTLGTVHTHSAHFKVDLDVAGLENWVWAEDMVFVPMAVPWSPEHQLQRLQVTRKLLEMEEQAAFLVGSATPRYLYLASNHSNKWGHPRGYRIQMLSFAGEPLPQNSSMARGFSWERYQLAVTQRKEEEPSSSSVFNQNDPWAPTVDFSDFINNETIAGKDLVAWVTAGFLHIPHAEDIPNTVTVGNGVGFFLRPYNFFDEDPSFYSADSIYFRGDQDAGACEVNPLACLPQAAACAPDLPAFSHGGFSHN
In words: Activity on recombinant human VAP-1, HRP-coupled Amplex Red hydrogen peroxide assay, benzylamine substrate. Conditions: 30 min incubation at 37° C., 1 mM benzylamine, read-out: Inhibitory Activity (IC50, nM) human VAP-1. As to the method:
(§1) The compounds according to the present technology were evaluated in terms of activity on recombinant human VAP-1 (R&D systems) by measuring the level of hydrogen peroxide in horseradish peroxidase (HRP)-coupled reaction using Amplex Red Hydrogen Peroxide Assay Kit (Molecular Probes, Invitrogen, USA). The experiment was carried out at room temperature using benzylamine as a substrate. In the HRP-coupled reaction, hydrogen peroxide oxidation of 10-acetyl-3,7-dihydroxyphenoxazine (Amplex Red reagent) produces resorufin, which is a highly fluorescent compound. Briefly, the test compound was dissolved in dimethyl sulfoxide (DMSO) at a concentration of 20 mM. The dose-response assessment was made by 1:3 serial dilution in DMSO, thereby creating a 8 point curve. The concentration of the upper part was controlled according to the efficacy of the compounds, followed by dilution with a reaction buffer solution to obtain a final DMSO concentration of less than 1%. To each well of a 96 black well plate, human VAP-1 purified in 50 mM sodium phosphate buffer solution (pH7.4) was added. The test compounds dissolved in DMSO were incubated with the human VAP-1 enzymes at 37° C. for 30 minutes. After 30-minute incubation, each well was added with a reaction mixture containing 200 uM Amplex Red reagent prepared from 50 mM sodium phosphate buffer solution (pH 7.4), 1 mM benzylamine, and 1 U/mL HRP. Fluorescence intensity was measured at several time points during 1-2 hours using a microplate reader (Flexstation3, Molecular Devices) under the wavelength condition exciting at 544 nm and reading the emission at 590 nm. The inhibitory effect of the compounds was measured as a decrease (%) in the signal rate as compared to the control group without any inhibitor (only diluted DMSO). Data was fixed to a logistic model with four variables and IC50 value was calculated using GraphPad Prism program.

For assay [1], the target named is T2, recombinant human DAO (diamine oxidase) (Homo sapiens, UniProt P19801).
T2 construct: purchased R&D systems
T2 sequence (P19801 20-751): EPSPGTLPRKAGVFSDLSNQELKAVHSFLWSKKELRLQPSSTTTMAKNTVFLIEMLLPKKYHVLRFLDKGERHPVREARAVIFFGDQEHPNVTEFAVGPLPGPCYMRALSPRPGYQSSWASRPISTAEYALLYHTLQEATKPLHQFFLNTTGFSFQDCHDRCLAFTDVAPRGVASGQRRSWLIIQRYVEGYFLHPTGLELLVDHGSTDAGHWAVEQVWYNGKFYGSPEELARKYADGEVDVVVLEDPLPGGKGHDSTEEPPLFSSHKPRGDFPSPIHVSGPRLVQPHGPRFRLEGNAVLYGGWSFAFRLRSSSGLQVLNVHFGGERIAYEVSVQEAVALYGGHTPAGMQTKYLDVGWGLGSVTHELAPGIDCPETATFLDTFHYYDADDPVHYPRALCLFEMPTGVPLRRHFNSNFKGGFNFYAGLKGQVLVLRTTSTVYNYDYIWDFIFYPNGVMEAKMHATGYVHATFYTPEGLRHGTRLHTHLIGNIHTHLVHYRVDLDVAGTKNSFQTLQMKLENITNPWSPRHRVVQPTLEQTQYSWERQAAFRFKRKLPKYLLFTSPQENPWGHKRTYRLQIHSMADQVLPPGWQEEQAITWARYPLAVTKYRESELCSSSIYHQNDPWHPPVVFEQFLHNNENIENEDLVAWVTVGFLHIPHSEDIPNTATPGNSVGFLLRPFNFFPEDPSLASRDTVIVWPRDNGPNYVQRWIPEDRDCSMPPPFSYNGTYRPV
Briefly: Activity on recombinant human DAO, method similar to VAP-1 assay, 1 mM putrescine substrate. Conditions: read-out: Inhibitory Activity (IC50, nM) DAO. As to the method:
as §1
(§2) In addition, the compounds according to the present technology were evaluated in terms of activity on a recombinant human MAO-A (monoamine oxidase-A, Sigma-Aldrich) and a recombinant human MAO-B(monoamine oxidase-B, Sigma-Aldrich) by using as substrates, 0.5 mM tyramine and 1 mM benzylamine, respectively, with a method similar to the activity evaluation method for recombinant human VAP-1. The compounds according to the present technology were also evaluated in terms of activity on a recombinant human DAO (diamine oxidase, R&D systems) by using as a substrate 1 mM putrescine with a method similar to the activity evaluation method for recombinant human VAP-1.

Assay [2] has as its target T3, recombinant human MAO-B (monoamine oxidase-B) (Homo sapiens, UniProt P27338).
T3 construct: purchased Sigma-Aldrich
T3 sequence (P27338 1-520): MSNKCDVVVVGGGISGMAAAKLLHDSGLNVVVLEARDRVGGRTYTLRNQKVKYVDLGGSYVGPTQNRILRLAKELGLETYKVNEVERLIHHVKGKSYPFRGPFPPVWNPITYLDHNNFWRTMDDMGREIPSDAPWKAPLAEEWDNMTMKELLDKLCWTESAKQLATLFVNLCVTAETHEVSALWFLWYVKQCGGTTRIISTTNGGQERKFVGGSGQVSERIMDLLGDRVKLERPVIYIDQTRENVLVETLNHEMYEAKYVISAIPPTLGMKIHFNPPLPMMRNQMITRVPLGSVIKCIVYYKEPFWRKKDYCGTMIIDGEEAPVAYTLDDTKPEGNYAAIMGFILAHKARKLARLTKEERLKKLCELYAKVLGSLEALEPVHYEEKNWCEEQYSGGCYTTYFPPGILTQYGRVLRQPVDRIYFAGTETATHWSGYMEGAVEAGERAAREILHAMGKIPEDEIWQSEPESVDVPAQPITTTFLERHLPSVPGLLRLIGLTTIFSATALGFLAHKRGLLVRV
Briefly: Activity on recombinant human MAO-B, method similar to VAP-1 assay, 1 mM benzylamine substrate. Conditions: read-out: Inhibitory Activity (IC50, nM) MAO-B. On the procedure: as §1, §2

Assay [3] addresses T4, recombinant human MAO-A (monoamine oxidase-A) (Homo sapiens, UniProt P21397).
T4 construct: purchased Sigma-Aldrich
T4 sequence (P21397 1-527): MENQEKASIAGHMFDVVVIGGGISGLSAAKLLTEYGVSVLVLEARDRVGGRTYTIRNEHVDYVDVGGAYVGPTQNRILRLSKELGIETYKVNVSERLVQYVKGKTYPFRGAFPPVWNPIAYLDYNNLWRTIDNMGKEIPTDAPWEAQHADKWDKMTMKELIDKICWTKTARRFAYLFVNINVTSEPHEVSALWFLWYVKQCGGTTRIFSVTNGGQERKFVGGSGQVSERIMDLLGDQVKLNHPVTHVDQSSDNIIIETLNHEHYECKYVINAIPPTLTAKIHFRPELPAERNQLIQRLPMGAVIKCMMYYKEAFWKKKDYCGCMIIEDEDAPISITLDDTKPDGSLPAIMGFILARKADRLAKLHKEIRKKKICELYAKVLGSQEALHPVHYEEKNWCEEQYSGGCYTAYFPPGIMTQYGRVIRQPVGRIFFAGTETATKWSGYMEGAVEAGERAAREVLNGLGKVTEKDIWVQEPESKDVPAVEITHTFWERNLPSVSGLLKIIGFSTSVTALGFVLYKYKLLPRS
In words: Activity on recombinant human MAO-A, method similar to VAP-1 assay, 0.5 mM tyramine substrate. Particulars: read-out: Inhibitory Activity (IC50, nM) MAO-A. As to the method: as §1, §2

On to `NC/C(=C\F)Cn1nc2cc(-c3ccc4c(c3)NC(=O)CO4)ccn2c1=O` [Example 42, 6-[2-[(2E)-2-(aminomethyl)-3-fluoroprop-2-en-1-yl]-3-oxo-2,3-dihydro[1,2,4]triazolo[4,3-a]pyridin-7-yl]-2H-1,4-benzoxazine-3 (4H)-one hydrochloride], for which the IC50 is 0.3 nM on recombinant human VAP-1, 1 nM in assay [1], 1400 nM in assay [2] and 5400 nM in assay [3].

As for `NCC(Cn1nc2cc(Br)ccn2c1=O)=C(F)F` [Example 47, 2-[2-(aminomethyl)-3,3-difluoro-allyl]-7-bromo-[1,2,4]triazolo[4,3-a]pyridin-3-one trifluoroacetate], the IC50 at recombinant human VAP-1 was 7 nM; in assay [1] it was 42000 nM; in assay [2] it was > 100000 nM; in assay [3], > 100000 nM.

On to `CN1CCOc2cc(-c3ccn4c(=O)n(C/C(=C/F)CN)nc4c3)ccc21` [Example 44, 2-[(2E)-2-(aminomethyl)-3-fluoroprop-2-en-1-yl]-7-(4-methyl-3,4-dihydro-2H-1,4-benzoxazin-7-yl)[1,2,4]triazolo[4,3-a]pyridin-3(2H)-one hydrochloride], for which the IC50 on recombinant human VAP-1 was 1 nM; in assay [1] it was 400 nM; in assay [2], < 10 nM; in assay [3] it was > 100000 nM.

Consider `NC/C(=C\F)Cn1nc2ccc(-c3ccc4sc(N)nc4c3)cn2c1=O` [Example 14, 6-(2-amino-1,3-benzothiazol-5-yl)-2-[(2E)-2-(aminomethyl)-3-fluoroprop-2-en-1-yl][1,2,4]triazolo[4,3-a]pyridin-3(2H)-one trifluoroacetate], for which the IC50 on recombinant human VAP-1 was 6.2 nM; in assay [1], < 100 nM; in assay [2] it was 69 nM; in assay [3], > 100000 nM.

Regarding `NC/C(=C\F)Cn1nc2ccc(-c3ccc(N4CCOCC4)nc3)cn2c1=O` [Example 10, 2-[(2E)-2-(aminomethyl)-3-fluoroprop-2-en-1-yl]-6-[6-(morpholin-4-yl)pyridin-3-yl][1,2,4]triazolo[4,3-a]pyridin-3(2H)-one trifluoroacetate], the IC50 at recombinant human VAP-1 was 6.6 nM; in assay [1] it was < 100 nM; in assay [2] it was 64 nM; in assay [3], > 100000 nM.

Regarding `NCC(Cn1nc2cc(C#Cc3ccc4c(c3)CCC(=O)N4)ccn2c1=O)=C(F)F` [Example 62, 6-[2-[2-[2-(aminomethyl)-3,3-difluoro-allyl]-3-oxo-[1,2,4]triazolo[4,3-a]pyridin-7-yl]ethynyl]-3,4-dihydro-1H-quinolin-2-one trifluoroacetate], the IC50 at recombinant human VAP-1 was 0.2 nM; in assay [1], 150 nM; in assay [2] it was 14000 nM; in assay [3], > 100000 nM.

For the molecule `NC/C(=C\F)Cn1nc2cc(-c3ccc4cn[nH]c4c3)ccn2c1=O` [Example 37, 2-[(2E)-2-(aminomethyl)-3-fluoroprop-2-en-1-yl]-7-(1H-indazol-6-yl)[1,2,4]triazolo[4,a]pyridin-3(2H)-one hydrochloride], the IC50 on recombinant human VAP-1 came to 0.1 nM; in assay [1] it was 0.3 nM; in assay [2], 190 nM; in assay [3], 26000 nM.

As to `NC/C(=C\F)Cn1nc2cc(-c3cccc(-c4noc(C5CC5)n4)c3)ccn2c1=O` [Example 28, 2-[(2E)-2-(aminomethyl)-3-fluoroprop-2-en-1-yl]-7-[3-(5-cyclopropyl-1,2,4-oxadiazol-3-yl)phenyl][1,2,4]triazolo[4,3-a]pyridin-3(2H)-one hydrochloride], the IC50 at recombinant human VAP-1 is 0.5 nM; in assay [1], 5 nM; in assay [2], 290 nM; in assay [3], > 100000 nM.

With `NC/C(=C\F)Cn1nc2ccc(-c3ccc(S(=O)(=O)N4CCOCC4)cc3)cn2c1=O` [Example 4, 2-[(2E)-2-(aminomethyl)-3-fluoroprop-2-en-1-yl]-6-[4-(morpholin-4-ylsulfonyl)phenyl][1,2,4]triazolo[4,3-a]pyridin-3(2H)-one trifluoroacetate], the IC50 on recombinant human VAP-1 was 6.2 nM; in assay [1], < 100 nM; in assay [2], > 10000 nM; in assay [3] it was > 100000 nM.

Broadly, the IC50 is the point on the concentration scale where inhibition reaches its midpoint.
